Test results reported in US7211424B1, “Mammalian Subtilisin/kexin isozyme SKI-1: a proprotein convertase with a unique cleavage specificity” (Institut de Recherches Cliniques de Montreal, priority 1999, dated 2007).
*1 amine or outer side, *2 acyl side, *3 side chain or, on linkers, in order; H or OH if unused. Where a SMILES comes first, the peptide text is derived from it. [ ]: non-standard residue; d: D form. The star is where a group is joined. Sta = CC(C)C[C@H](N)[C@@H](O)CC(=O)O; Isovaleryl = CC(C)CC(=O)*; CO = O=C([*:1])[*:2]

Experiments:
BTMD-SKI-1 = biological target: T1, BTMD-SKI-1 (Homo sapiens, UniProt Q14703); experiment: biochemical; assay type: biochemical
T1 sequence (Q14703 187-997 limits assumed): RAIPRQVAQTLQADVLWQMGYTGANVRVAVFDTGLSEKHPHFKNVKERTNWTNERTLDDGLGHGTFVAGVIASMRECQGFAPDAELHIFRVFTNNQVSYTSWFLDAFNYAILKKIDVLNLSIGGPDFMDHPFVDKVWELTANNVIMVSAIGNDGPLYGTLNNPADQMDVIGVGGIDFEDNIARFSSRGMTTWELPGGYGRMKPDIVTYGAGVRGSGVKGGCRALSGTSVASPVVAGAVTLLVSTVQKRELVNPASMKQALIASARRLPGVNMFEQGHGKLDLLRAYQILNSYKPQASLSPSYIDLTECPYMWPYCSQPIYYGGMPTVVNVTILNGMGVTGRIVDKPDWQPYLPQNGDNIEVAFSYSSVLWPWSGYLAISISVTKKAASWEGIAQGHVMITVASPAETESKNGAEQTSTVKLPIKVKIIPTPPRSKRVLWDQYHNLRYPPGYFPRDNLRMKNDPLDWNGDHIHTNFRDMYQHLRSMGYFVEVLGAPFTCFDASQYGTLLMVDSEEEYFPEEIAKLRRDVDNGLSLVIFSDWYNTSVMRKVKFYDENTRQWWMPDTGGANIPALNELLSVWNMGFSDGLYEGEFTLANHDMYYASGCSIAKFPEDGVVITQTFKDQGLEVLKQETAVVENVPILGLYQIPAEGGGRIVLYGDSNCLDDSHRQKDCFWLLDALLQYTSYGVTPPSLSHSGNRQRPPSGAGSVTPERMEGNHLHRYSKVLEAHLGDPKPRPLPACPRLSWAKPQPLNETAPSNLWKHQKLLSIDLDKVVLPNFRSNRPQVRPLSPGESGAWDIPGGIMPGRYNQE
T1 sequence (Q14703 17-137 partner limits assumed): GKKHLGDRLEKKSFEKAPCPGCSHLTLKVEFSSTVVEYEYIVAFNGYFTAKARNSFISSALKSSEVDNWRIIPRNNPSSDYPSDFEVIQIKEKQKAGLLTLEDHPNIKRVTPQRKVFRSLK

SKI-1 = biological target: T2, SKI-1 (Homo sapiens, UniProt Q14703); assay type: cell-based; parameters: The VV recombinant of full-length hSKI-1 has been described (10); expressed in transfected cells; host or cells: COS-7 cells co-infected with vv:BDNF and vv:SKI-1 (with vv:WT, vv:PIT or vv:PDX)
T2 sequence (Q14703 187-1052): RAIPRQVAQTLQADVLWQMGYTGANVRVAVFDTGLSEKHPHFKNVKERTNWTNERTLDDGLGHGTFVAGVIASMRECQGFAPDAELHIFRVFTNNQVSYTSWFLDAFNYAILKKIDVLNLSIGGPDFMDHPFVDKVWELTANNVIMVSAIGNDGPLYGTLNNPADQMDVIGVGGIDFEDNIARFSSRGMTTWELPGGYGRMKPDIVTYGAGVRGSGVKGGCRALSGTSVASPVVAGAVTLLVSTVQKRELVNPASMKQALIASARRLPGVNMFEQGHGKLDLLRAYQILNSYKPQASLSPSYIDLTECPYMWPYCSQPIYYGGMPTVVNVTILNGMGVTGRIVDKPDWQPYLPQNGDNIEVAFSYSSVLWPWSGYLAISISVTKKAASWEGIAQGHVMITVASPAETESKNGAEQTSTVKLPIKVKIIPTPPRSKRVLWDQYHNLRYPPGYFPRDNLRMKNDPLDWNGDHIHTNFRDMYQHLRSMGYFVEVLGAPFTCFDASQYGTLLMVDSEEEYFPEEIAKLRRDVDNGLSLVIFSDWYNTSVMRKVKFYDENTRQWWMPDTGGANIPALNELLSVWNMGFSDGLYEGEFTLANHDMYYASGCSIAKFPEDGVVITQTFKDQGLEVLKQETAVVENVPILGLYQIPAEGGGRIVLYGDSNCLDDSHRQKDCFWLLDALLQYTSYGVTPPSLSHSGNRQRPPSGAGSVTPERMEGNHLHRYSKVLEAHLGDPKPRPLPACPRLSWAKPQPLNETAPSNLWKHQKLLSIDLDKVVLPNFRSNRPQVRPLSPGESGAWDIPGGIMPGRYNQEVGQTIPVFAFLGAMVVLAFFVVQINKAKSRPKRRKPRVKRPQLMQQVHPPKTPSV

[1] = biological target: T3, peptide X, Q-hSKI-1 (132-142): Abz-VFRSLKYAESD-Y(NO2)-A
T3 chain: XVFRSLKYAESDXA

[2] = biological target: T4, peptide XI, Q-hSKI-1 (134-142): Abz-RSLKYAESD-Y(NO2)-A
T4 chain: XRSLKYAESDXA

[3] = read-out: Hydrolysis of SREBP-2 peptide (% of control)

For Nc1ccc(CS(=O)(=O)F)cc1 [APMSF, para-aminophenylmethylsulfonyl fluoride], the “Hydrolysis of SREBP-2 peptide (% of control)” value (“Hydrolysis … (% of control)” for short) (BTMD-SKI-1) was 95 % of control.

With Cc1ccc(S(=O)(=O)N[C@@H](Cc2ccccc2)C(=O)CCl)cc1 [TPCK] the “Hydrolysis … (% of control)” value (BTMD-SKI-1) was 71 % of control.

O=S(=O)([O-])[O-].[Zn+2] [ZnSO4] was tested, and the “Hydrolysis … (% of control)” value (BTMD-SKI-1) was 0 % of control.

CC(C)[C@H](NC(=O)[C@H](CCCNC(=N)N)NC(=O)N[C@@H](Cc1ccccc1)C(=O)O)C(=O)N[C@H](C=O)CCCNC(=N)N [Antipain, antipain] ({Phe-CO}-Arg-Val-Arg-aldehyde) showed a remaining activity at 1000 µM (BTMD-SKI-1; [3]) of 100%.

With O=S(=O)([O-])[O-].[Ni+2] [NiSO4] the “Hydrolysis … (% of control)” value (BTMD-SKI-1) was 93 % of control.

O=S(=O)([O-])[O-].[Cu+2] [CuSO4] was tested, and the “Hydrolysis … (% of control)” value (BTMD-SKI-1) was 0 % of control.

CC(C)CC(=O)N[C@H](C(=O)N[C@H](C(=O)N[C@@H](CC(C)C)[C@@H](O)CC(=O)N[C@@H](C)C(=O)N[C@@H](CC(C)C)[C@@H](O)CC(=O)O)C(C)C)C(C)C [Pepstatin, pepstatin] (Isovaleryl-VV[Sta]A[Sta]-OH) was tested, and the remaining activity at 100 µM (BTMD-SKI-1; [3]) was 97%.

CC(=O)N[C@@H](CC(C)C)C(=O)N[C@@H](CC(C)C)C(=O)N[C@H](C=O)CCCNC(=N)N [Leupeptin] showed a remaining activity at 1000 µM (BTMD-SKI-1; [3]) of 100%.

CC(C)C[C@H](NC(=O)[C@@H](NC(=O)N[C@@H](Cc1ccccc1)C(=O)O)[C@@H]1CCN=C(N)N1)C(=O)N[C@H](C=O)Cc1ccccc1 [Chymostatin] showed a remaining activity at 1000 µM (BTMD-SKI-1; [3]) of 100%.

In the case of CC(C)C[C@H](NC(=O)[C@H]1O[C@@H]1C(=O)O)C(=O)NCCCCN=C(N)N [Peptide E-64], the “Hydrolysis … (% of control)” value (BTMD-SKI-1) is reported as 100 % of control.

In the case of α1-antitrypsin Pittsburgh [α1-PIT], the “level of the 28 kDa BDNF product” value (SKI-1) is reported as “neither α1-PIT nor α1-PDX affect the level of the 28 kDa product”.

cystatin was tested, and the “Hydrolysis … (% of control)” value (BTMD-SKI-1) was 100 % of control.

With [Cl-].[Cl-].[Mg+2] [MgCl2] the “Hydrolysis … (% of control)” value (BTMD-SKI-1) was 100 % of control.

In the case of Cc1ccc(S(=O)(=O)NC(CCCCN)C(=O)CCl)cc1 (stereo not drawn) [TLCK], the “Hydrolysis … (% of control)” value (BTMD-SKI-1) is reported as 100 % of control.

For O[C@H](CS)[C@H](O)CS (racemic) [Dithiothreitol], the remaining activity at 10000 µM (BTMD-SKI-1; [3]) was 92%.

For O=C(O)CN(CCOCCOCCN(CC(=O)O)CC(=O)O)CC(=O)O [EGTA], the “Hydrolysis … (% of control)” value (BTMD-SKI-1) was 15 % of control.

In the case of [Cl-].[Cl-].[Co+2] [CoCl2], the “Hydrolysis … (% of control)” value (BTMD-SKI-1) is reported as 100 % of control.

B1: proBDNF: 32 kDa human pro-brain-derived neurotrophic factor, precursor substrate (protein, UniProt P23560 19-247, looked up)
pro-form: APMKEANIRGQGGLAYPGVRTHGTLESVNGPKAGSRGLTSLADTFEHVIEELLDEDQKVRPNEENNKDADLYTSRVMLSSQVPLEPPLLFLLEEYKNYLDAANMSMRVRRHSDPARRGELSVCDSISEWVTAADKKTAVDMSGGTVTVLEKVPVSKGQLKQYFYETKCNPMGYTKEGCRGIDKRHWNSQCRTTQSYVRALTMDSKKRIGWRFIRIDTSCVCTLTIKRGR
modifications: pro-form
notes: 32 kDa human pro-brain-derived neurotrophic factor, precursor substrate
For B1, the “intracellular cleavage of precursor by SKI-1” value (SKI-1) was “could be cleaved intracellularly by SKI-1”.

B2: 98 kDa shed form of SKI-1 (sSKI-1) (protein)
chain: RAIPRQVAQTLQADVLWQMGYTGANVRVAVFDTGLSEKHPHFKNVKERTNWTNERTLDDGLGHGTFVAGVIASMRECQGFAPDAELHIFRVFTNNQVSYTSWFLDAFNYAILKKIDVLNLSIGGPDFMDHPFVDKVWELTANNVIMVSAIGNDGPLYGTLNNPADQMDVIGVGGIDFEDNIARFSSRGMTTWELPGGYGRMKPDIVTYGAGVRGSGVKGGCRALSGTSVASPVVAGAVTLLVSTVQKRELVNPASMKQALIASARRLPGVNMFEQGHGKLDLLRAYQILNSYKPQASLSPSYIDLTECPYMWPYCSQPIYYGGMPTVVNVTILNGMGVTGRIVDKPDWQPYLPQNGDNIEVAFSYSSVLWPWSGYLAISISVTKKAASWEGIAQGHVMITVASPAETESKNGAEQTSTVKLPIKVKIIPTPPRSKRVLWDQYHNLRYPPGYFPRDNLRMKNDPLDWNGDHIHTNFRDMYQHLRSMGYFVEVLGAPFTCFDASQYGTLLMVDSEEEYFPEEIAKLRRDVDNGLSLVIFSDWYNTSVMRKVKFYDENTRQWWMPDTGGANIPALNELLSVWNMGFSDGLYEGEFTLANHDMYYASGCSIAKFPEDGVVITQTFKDQGLEVLKQETAVVENVPILGLYQIPAEGGGRIVLYGDSNCLDDSHRQKDCFWLLDALLQYTSYGVTPPSLSHSGNRQRPPSGAGSVTPERMEGNHLHRYSKVLEAHLGDPKPRPLPACPRLSWAKPQPLNETAPSNLWKHQKLLSIDLDKVVLPNFRSNRPQVRPLSPGESGAWDIPGGIMPGRYNQ
B2 gave a Km(app) [1] of 31.3 µM, a Vmax(app) [1] of 34 µmol/h and a Vmax(app)/Km(app) [1] of 1.1 h^-1L^-1. The “cleavage of quenched fluorogenic peptide (mass spectrometry)” value [1] was “both peptides were cleaved at the RSLK↓ (SEQ. ID. NO. 100) site by shed SKI-1 derived from HK293 cell transfects, but not by medium obtained from HK293 empty vector transfectants”, the Km(app) [2] was 8.7 µM and the Vmax(app) [2] was 56.9 µmol/h. The Vmax(app)/Km(app) [2] was 6.5 h^-1L^-1 and the “cleavage of quenched fluorogenic peptide (mass spectrometry)” value [2] was “both peptides were cleaved at the RSLK↓ (SEQ. ID. NO. 100) site by shed SKI-1 derived from HK293 cell transfects, but not by medium obtained from HK293 empty vector transfectants”.

B3: soya bean trypsin inhibitor (protein, UniProt P01070 25-205, looked up)
Trypsin inhibitor A: DFVLDNEGNPLENGGTYYILSDITAFGGIRAAPTGNERCPLTVVQSRNELDKGIGTIISSPYRIRFIAEGHPLSLKFDSFAVIMLCVGIPTEWSVVEDLPEGPAVKIGENKDAMDGWFRLERVSDDEFNNYKLVFCPQQAEDDKCGDIGISIDHDDGTRRLVVSKNKPLVVQFQKLDKESL
For B3, the “Hydrolysis … (% of control)” value (BTMD-SKI-1) was 100 % of control.
